The source of these data is patent US20130203756A1, “ISOINDOLINE PDE10 INHIBITORS” (priority 2010, published 2013).

Molecules are shown by their SMILES.

T1 sequence (Q9Y233 267-1055): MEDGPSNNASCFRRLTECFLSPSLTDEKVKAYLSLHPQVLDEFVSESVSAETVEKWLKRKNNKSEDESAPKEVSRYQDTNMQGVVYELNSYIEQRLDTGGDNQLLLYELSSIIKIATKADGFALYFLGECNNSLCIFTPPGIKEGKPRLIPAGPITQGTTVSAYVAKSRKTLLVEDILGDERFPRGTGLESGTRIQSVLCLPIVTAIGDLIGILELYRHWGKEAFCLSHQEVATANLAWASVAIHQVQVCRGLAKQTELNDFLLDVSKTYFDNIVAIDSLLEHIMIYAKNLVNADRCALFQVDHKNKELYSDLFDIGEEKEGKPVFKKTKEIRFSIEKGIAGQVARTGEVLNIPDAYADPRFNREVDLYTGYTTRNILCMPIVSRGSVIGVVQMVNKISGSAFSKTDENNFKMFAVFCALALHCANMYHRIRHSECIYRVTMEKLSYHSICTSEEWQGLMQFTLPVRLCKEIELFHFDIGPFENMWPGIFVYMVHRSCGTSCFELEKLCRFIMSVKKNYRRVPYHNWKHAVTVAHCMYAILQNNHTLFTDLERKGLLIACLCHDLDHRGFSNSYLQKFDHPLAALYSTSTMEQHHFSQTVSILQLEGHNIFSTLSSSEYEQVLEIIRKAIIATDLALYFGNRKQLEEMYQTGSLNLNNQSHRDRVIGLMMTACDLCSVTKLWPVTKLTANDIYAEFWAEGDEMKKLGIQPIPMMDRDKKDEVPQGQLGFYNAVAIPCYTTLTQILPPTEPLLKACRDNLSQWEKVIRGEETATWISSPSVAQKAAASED

This assay has as its target T1, human PDE10A2 (Homo sapiens, UniProt Q9Y233).
T1 construct: made in house; host or cells: AD293 cells, transient transfection; cytosolic supernatant of the sonicated lysate used as enzyme
Kind of assay: PDE10 inhibitory activity, IMAP fluorescence polarization (FP) assay. The class given is biochemical. The following applies: apparent inhibition constant, FAM-labeled cAMP 50 nM, room temperature, read-out: PDE10A Ki. Here is the method: The activity of the compounds in accordance with the present invention as PDE10 inhibitors may be readily determined without undue experimentation using a fluorescence polarization (FP) methodology that is well known in the art (Huang, W., et al., J. Biomol Screen, 2002, 7: 215).
In a typical experiment the PDE 10 inhibitory activity of the compounds of the present invention was determined in accordance with the following experimental method. PDE10A2 was amplified from human fetal brain cDNA (Clontech, Mountain View, Calif.) using a forward primer corresponding to nucleotides 56-77 of human PDE10A2 (Accession No. AF127480, Genbank Identifier 4894716), containing a Kozak consensus sequence, and a reverse primer corresponding to nucleotides 2406-2413 of human PDE10A2 (Accession No. AF127480, Genbank Identifier 4894716). Amplification with Easy-A polymerase (Stratagene, La Jolla, Calif.) was 95° C. for 2 minutes followed by thirty three cycles of 95° C. for 40 seconds, 55° C. for 30 seconds, and 72° C. for 2 minutes 48 seconds. Final extension was 72° C. for 7 minutes. The PCR product was TA cloned into pcDNA3.2-TOPO (Invitrogen, Carlsbad, Calif.) according to standard protocol. AD293 cells with 70-80% confluency were transiently transfected with human PDE10A2/pcDNA3.2-TOPO using Lipofectamine 2000 according to manufacturer specifications (Invitrogen, Carlsbad, Calif.). Cells were harvested 48 hours post-transfection and lysed by sonication (setting 3, 10×5 sec pulses) in a buffer containing 20 mM HEPES, 1 mM EDTA and protease inhibitor cocktail (Roche). Lysate was collected by centrifugation at 75,000×g for 20 minutes. Supernatant containing the cytoplasmic fraction was used for evaluation of PDE10A2 activity. The fluorescence polarization assay for cyclic nucleotide phosphodiesterases was performed using an IMAP® FP kit supplied by Molecular Devices, Sunnyvale, Calif. (product #R8139). IMAP® technology has been applied previously to phosphodiesterase assays (Huang, W., et al., J. Biomol Screen, 2002, 7: 215). Assays were performed at room temperature in 384-well microtiter plates with an incubation volume of 20.2 μL. Solutions of test compounds were prepared in DMSO and serially diluted with DMSO to yield 8 μL of each of 10 solutions differing by 3-fold in concentration, at 32 serial dilutions per plate. 100% inhibition is determined using a known PDE10 inhibitor, which can be any compound that is present at 5,000 times its Ki value in the assay described as follows, such as papaverine (see Siuciak, et al. Neuropharmacology (2006) 51:386-396; Becker, et al. Behav Brain Res (2008) 186(2):155-60; Threlfell, et al., J Pharmacol Exp Ther (2009) 328(3):785-795), 2-{4-[pyridin-4-yl-1-(2,2,2-trifluoroethyl)-1H-pyrazol-3-yl]phenoxymethyl}quinoline succinic acid or 2-[4-(1-methyl-4-pyridin-4-yl-1H-pyrazol-3-yl)-phenoxymethyl]quinoline succinic acid (see Schmidt, et al. J Pharmacol Exp Ther (2008) 325:681-690; Threlfell, et al., J Pharmacol Exp Ther (2009) 328(3): 785-795), 0% of inhibition is determined by using DMSO (1% final concentrations).
A Labcyte Echo 555 (Labcyte, Sunnyvale, Calif.) is used to dispense […] from each well of the titration plate to the 384 well assay plate. A solution of enzyme (1/1600 dilution from aliquots; sufficient to produce 20% substrate conversion) and a separate solution of FAM-labeled cAMP PDE from Molecular Devices (product #R7506), at a final concentration of 50 nM are made in the assay buffer (10 mM Tris HCl, pH 7.2, 10 mM MgCl2, 0.05% NaN3 0.01% Tween-20, and 1 mM DTT). The enzyme and the substrate are then added to the assay plates in two consecutive additions of 10 μL, and then shaken to mix. The reaction is allowed to proceed at room temperature for 30 minutes. A binding solution is then made from the kit components, comprised of 80% Solution A, 20% Solution B and binding reagent at a volume of 1/600 the total binding solution. […]
For orientation: Polarisation of emitted light reports the rotation of a fluorescent probe.
`Cc1ccc([C@@H]2C[C@H]2CN2Cc3c(cccc3-c3ncco3)C2=O)nc1` (single isomer, unassigned) [Compound 1-50, 2-{[(1S,2S) or (1R,2R)-2-(5-methylpyridin-2-yl)cyclopropyl]methyl}-4-(1,3-oxazol-2-yl)-2,3-dihydro-1H-isoindol-1-one]: the Ki is 0.61 nM.

For the compound `Cc1ccc([C@@H]2C[C@H]2CN2Cc3c(cccc3-n3cccn3)C2=O)nc1` (single isomer, unassigned) [Compound 1-54, 2-{[(1S,2S) or (1R,2R)-2-(5-methylpyridin-2-yl)cyclopropyl]methyl}-4-(1H-pyrazol-1-yl)-2,3-dihydro-1H-isoindol-1-one], the Ki is 0.86 nM.

For the compound `COc1ccc(-n2c(CCN3Cc4cccc(OC(C)C)c4C3=O)nc3ccccc3c2=O)cc1` (single isomer, unassigned) [Compound B-6, 3-(4-methoxyphenyl)-2-{2-[1-oxo-7-(propan-2-yloxy)-1,3-dihydro-2H-isoindol-2-yl]ethyl}quinazolin-4(3H)-one], the Ki came to 2.9 nM.

Take `COc1ccc(-n2c(CCN3Cc4c(OC(C)C)cccc4C3=O)nc3ccccc3c2=O)cc1` (single isomer, unassigned) [Compound B-7, 3-(4-methoxyphenyl)-2-{2-[1-oxo-4-(propan-2-yloxy)-1,3-dihydro-2H-isoindol-2-yl]ethyl}quinazolin-4(3H)-one]: the Ki is 1.2 nM.

For `O=C1c2cccc(-n3cccn3)c2CN1CCc1ccc2ccccc2n1` [Compound 1-17, 4-(1H-pyrazol-1-yl)-2-[2-(quinolin-2-yl)ethyl]-2,3-dihydro-1H-isoindol-1-one], the Ki was found to be 0.46 nM.

As to `O=C1c2cccc(-c3cscn3)c2CN1CCc1nc2ccccc2cc1C1CC1` [Compound 1-27, 2-[2-(3-cyclopropylquinolin-2-yl)ethyl]-4-(1,3-thiazol-4-yl)-2,3-dihydro-1H-isoindol-1-one], the Ki is 0.1 nM.

With `O=C1c2cccc(-c3cscn3)c2CN1CCc1ccc2c(n1)CCCC2O` (centres unmarked) [Compound 1-28, 2-[2-(5-hydroxy-5,6,7,8-tetrahydroquinolin-2-yl)ethyl]-4-(1,3-thiazol-4-yl)-2,3-dihydro-1H-isoindol-1-one], the Ki came out at 1.2 nM.

For the compound `O=C1c2cccc(-c3ncco3)c2CN1CCc1ccc2c(n1)CCCC2O` (centres unmarked) [Compound 1-29, 2-[2-(5-hydroxy-5,6,7,8-tetrahydroquinolin-2-yl)ethyl]-4-(1,3-oxazol-2-yl)-2,3-dihydro-1H-isoindol-1-one], the Ki stood at 4.6 nM.

As for `O=C1c2cccc(-c3nccs3)c2CN1CCc1csc(-c2ccn[nH]2)n1` [Compound 1-40, 2-(2-(2-(1H-pyrazol-5-yl)thiazol-4-yl)ethyl)-4-(thiazol-2-yl)isoindolin-1-one], the Ki is 5.8 nM.

With `COc1ccc(-n2c(CCN3Cc4c(Br)cccc4C3=O)nc3ccccc3c2=O)cc1` [Compound A-3, 2-[2-(4-bromo-1-oxo-1,3-dihydro-2H-isoindol-2-yl)ethyl]-3-(4-methoxyphenyl)quinazolin-4(3H)-one], the Ki is 16 nM.

Consider `COc1ccc(-n2c(CCN3Cc4c(cccc4-c4ncco4)C3=O)nc3ccccc3c2=O)cc1` [Compound A-4, 3-(4-methoxyphenyl)-2-{2-[4-(1,3-oxazol-2-yl)-1-oxo-1,3-dihydro-2H-isoindol-2-yl]ethyl}quinazolin-4(3H)-one], for which the Ki was 0.19 nM.

On to `COc1ccc(-c2cc3ccccc3nc2CCN2Cc3c(cccc3-c3ncco3)C2=O)cc1` [Compound C-5, 2-{2-[3-(4-methoxyphenyl)quinolin-2-yl]ethyl}-4-(1,3-oxazol-2-yl)-2,3-dihydro-1H-isoindol-1-one], for which the Ki is 0.011 nM.

On to `O=C1c2cccc(-n3cccn3)c2CN1CCc1ccc2ncccc2n1` [Compound D-4, 2-[2-(1,5-naphthyridin-2-yl)ethyl]-4-(1H-pyrazol-1-yl)-2,3-dihydro-1H-isoindol-1-one], for which the Ki was 10.9 nM.

Turning to `CC(CN1Cc2c(cccc2-c2ncco2)C1=O)c1cn2ccccc2n1` (centres unmarked) [Compound E-5, 2-[2-(imidazo[1,2-a]pyridin-2-yl)propyl]-4-(1,3-oxazol-2-yl)-2,3-dihydro-1H-isoindol-1-one], the Ki was found to be 5.7 nM.

As to `O=C1c2cccc(-c3ncco3)c2CN1CCc1ccc2c(n1)CCCC2` [Compound F-6, 4-(1,3-oxazol-2-yl)-2-[2-(5,6,7,8-tetrahydroquinolin-2-yl)ethyl]-2,3-dihydro-1H-isoindol-1-one], the Ki was 2.3 nM.

Consider `Cn1cc(-c2cccc3c2CN(CCc2ccc4ncccc4n2)C3=O)nn1` [Compound H-2, 4-(1-methyl-1H 1,2,3-triazol-4-yl)-2-[2-(1,5-naphthyridin-2-yl)ethyl]isoindolin-1-one], for which the Ki stood at 50 nM.

For `O=C1c2cc(O)cc(Br)c2CN1CCc1ccc2ncccc2n1` [Compound I-4, 4-Bromo-6-hydroxy-2-[2-(1,5naphthyridin-2-yl)ethyl]isoindolin-1-one], the Ki stood at 17.2 nM.

As to `Cn1cc(CNc2cc3c(c(-c4ncco4)n2)CN(CCc2cn4ccccc4n2)C3=O)cn1` [Compound J-9], the Ki was 11.2 nM.

As to `O=C1c2cccc(-c3cscn3)c2CN1CCc1csc(-c2ccn[nH]2)n1` [Compound K-4, 2-(2-(2-(1H-pyrazol-5-yl)thiazol-4-yl)ethyl)-4-(thiazol-4-yl)isoindolin-1-one], the Ki stood at 0.31 nM.

`O=C1c2cccc(-c3ncco3)c2CN1CC1CC1c1cn2ccccc2n1` (centres unmarked) [Compound M-6, 2-((2-(imidazo[1,2-a]pyridin-2-yl)cyclopropyl)methyl)-4-(oxazol-2-yl)isoindolin-1-one]: the Ki was 0.14 nM.
